Experimental data from the supplement of paper PMC10307832.

Assays:
Experiment in all cases: relative viability (nuclei count vs DMSO), 5 days (fraction); higher = more cells survive
Wnt-C59 + Alpelisib = compound: CC1=NC=CC(=C1)C2=CC=C(C=C2)CC(=O)NC3=CC=C(C=C3)C4=CN=CC=C4 [Wnt-C59] + Cc1nc(NC(=O)N2CCC[C@H]2C(N)=O)sc1-c1ccnc(C(C)(C)C(F)(F)F)c1 [Alpelisib] (partner 2 µM)
Outline: (§1)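 Values are medians from duplicate plates. Each reflects relative viability, defined as the nuclei count of treated wells over that of vehicle wells. Lung cancer cell lines in 1536-well plates were pin-tool dosed one day after seeding with one drug alone or with a fixed anchor-drug dose plus five library-drug doses (not always all listed) in √10 steps, then fixed, stained and imaged at 4× after 5 days.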

Wnt-C59 + OSI-027 = compound: CC1=NC=CC(=C1)C2=CC=C(C=C2)CC(=O)NC3=CC=C(C=C3)C4=CN=CC=C4 [Wnt-C59] + COc1cccc2cc(-c3nc([C@H]4CC[C@H](C(=O)O)CC4)n4ncnc(N)c34)[nH]c12 [OSI-027] (partner 0.5 µM)
Outline: as §1

Wnt-C59 + Olaparib = compound: CC1=NC=CC(=C1)C2=CC=C(C=C2)CC(=O)NC3=CC=C(C=C3)C4=CN=CC=C4 [Wnt-C59] + O=C(c1cc(Cc2n[nH]c(=O)c3ccccc23)ccc1F)N1CCN(C(=O)C2CC2)CC1 [Olaparib] (partner 8 µM)
Outline: as §1

Wnt-C59 + Pemetrexed = compound: CC1=NC=CC(=C1)C2=CC=C(C=C2)CC(=O)NC3=CC=C(C=C3)C4=CN=CC=C4 [Wnt-C59] + Nc1nc2[nH]cc(CCc3ccc(C(=O)N[C@@H](CCC(=O)O)C(=O)O)cc3)c2c(=O)[nH]1 [Pemetrexed] (partner 0.2 µM)
Outline: as §1

Cell Line LCLC-97TM1 has a relative viability (Wnt-C59 + Alpelisib; first compound 0.001 µM) of 0.268, a relative viability (Wnt-C59 + Alpelisib; first compound 0.01 µM) of 0.256 and a relative viability (Wnt-C59 + Alpelisib; first compound 0.03162 µM) of 0.19. The relative viability (Wnt-C59 + Alpelisib; first compound 0.1 µM) was 0.2, the relative viability (Wnt-C59 + OSI-027; first compound 0.001 µM) was 0.581 and the relative viability (Wnt-C59 + OSI-027; first compound 0.01 µM) was 0.512. The relative viability (Wnt-C59 + OSI-027; first compound 0.03162 µM) was 0.667, the relative viability (Wnt-C59 + OSI-027; first compound 0.1 µM) was 0.502 and the relative viability (Wnt-C59 + Olaparib; first compound 0.001 µM) was 0.403. It also gave a relative viability (Wnt-C59 + Olaparib; first compound 0.01 µM) of 0.434, a relative viability (Wnt-C59 + Olaparib; first compound 0.03162 µM) of 0.358 and a relative viability (Wnt-C59 + Olaparib; first compound 0.1 µM) of 0.323. It also gave a relative viability (Wnt-C59 + Pemetrexed; first compound 0.001 µM) of 0.169, a relative viability (Wnt-C59 + Pemetrexed; first compound 0.01 µM) of 0.181 and a relative viability (Wnt-C59 + Pemetrexed; first compound 0.03162 µM) of 0.18. For the same cell line, the relative viability (Wnt-C59 + Pemetrexed; first compound 0.1 µM) was 0.183.
